According to publication PMC9728921, “Characterization of a KDM5 small molecule inhibitor with antiviral activity against hepatitis B virus” (PLOS ONE, 2022):

What was measured:
[1] = biological target: KDM6B (Homo sapiens, UniProt O15054); assay: KDM6B enzymatic assay (AlphaLISA); assay type: biochemical
Experimental: The following assay protocol was used for all histone demethylases tested except KDM1A, KDM5A, B, and D, which are described below. Compounds were serially diluted into a 384-well Alpha plate as a DMSO solution and mixed with 5 μL reaction buffer (buffer A) containing 50 mM HEPES (pH 7.0), 0.1% BSA, and 0.003% Tween-20. The enzyme of interest was pre-incubated with 15 μM of Fe^2+ for 10 min (except 30 min for KDM2B) in reaction buffer A. 5 μL of the enzyme mixture was added to each of the compound-containing wells and incubated for 10 min. The reaction was started by addition of a 5 μL mixture containing 300 nM peptide substrate, 75 μM L-ascorbic acid, and 30 μM α-ketoglutarate in buffer A. This final 15 μL of reaction mixture was incubated for 20 min for KDM5B and 1 hour for the other KDM enzymes. The reaction was quenched with 10 μL of diluted AlphaLISA Acceptor beads (1:400) in Epigenetics Buffer and incubated for 60 min. The Donor beads were diluted 1:400 into Epigenetics Buffer in the dark and 10 μL of this was added to each well and incubated for another 60 min in the dark. The assay plates were read on an Enspire plate reader (PerkinElmer) using a standard AlphaLISA program.
(§1) Data was analyzed using GraphPad Prism 6.0 (La Jolla, CA). […] IC50 values were calculated as an average of at least two independent experiments.

[2] = system: KDM enzymes; assay: KDM enzyme panel, selectivity across KDM families; assay type: biochemical, human
Experimental: The following assay protocol was used for all histone demethylases tested except KDM1A, KDM5A, B, and D, which are described below. Compounds were serially diluted into a 384-well Alpha plate as a DMSO solution and mixed with 5 μL reaction buffer (buffer A) containing 50 mM HEPES (pH 7.0), 0.1% BSA, and 0.003% Tween-20. The enzyme of interest was pre-incubated with 15 μM of Fe^2+ for 10 min (except 30 min for KDM2B) in reaction buffer A. 5 μL of the enzyme mixture was added to each of the compound-containing wells and incubated for 10 min. […] The assay plates were read on an Enspire plate reader (PerkinElmer) using a standard AlphaLISA program.
KDM5A and 5B were tested using CisBio HTRF assay platform by Reaction Biology Corp (Malvern, PA). […] The fluorescence resonance energy transfer was measured using an excitation wavelength of 320 nm and emission wavelength of 665 nm on an Envision plate reader (Perkin Elmer). […]
The KDM1 assay was conducted in the presence of […] but without Fe(II) or ascorbic acid. […] The assay plates were read on an Enspire plate reader (PerkinElmer) using a standard AlphaLISA program.
as §1

[3] = biological target: T1, G9a (Homo sapiens, UniProt Q96KQ7); assay: Histone methyltransferase enzymatic assay, G9a; assay type: biochemical; conditions: enzyme conc. 100 nM
T1 construct: 786-1210; purchased RBC (read as Reaction Biology Corporation, named)
Experimental: Histone methyltransferase assays were performed in 96-well half-area optiplates (PerkinElmer) at room temperature. All concentrations are final unless noted otherwise. Compounds were serially diluted in DMSO and the final DMSO concentration was 1%. A 24 μL reaction mixture contained compound, enzyme, 200 nM of nucleosome or histone substrate, 400 nM ^3H-SAM (83.1 Ci/mmol), 50 mM Tris-HCl (pH 8.0), 50 mM NaCl, 5 mM MgCl2, 1 mM DTT, and 0.01% Tween-20. The plate was sealed, mixed on a Titramax plate shaker at 1200 rpm for 30 sec, and incubated at room temperature for 60 min. The reaction was quenched by addition of 24 μL mixture containing 5 mg/mL PVT-PEI beads and 300 μM unlabeled SAM in water. The plate was sealed, mixed as previously noted, incubated overnight, and read on a TopCount plate reader (PerkinElmer).
as §1

Chain of KDM6B (O15054 whole entry): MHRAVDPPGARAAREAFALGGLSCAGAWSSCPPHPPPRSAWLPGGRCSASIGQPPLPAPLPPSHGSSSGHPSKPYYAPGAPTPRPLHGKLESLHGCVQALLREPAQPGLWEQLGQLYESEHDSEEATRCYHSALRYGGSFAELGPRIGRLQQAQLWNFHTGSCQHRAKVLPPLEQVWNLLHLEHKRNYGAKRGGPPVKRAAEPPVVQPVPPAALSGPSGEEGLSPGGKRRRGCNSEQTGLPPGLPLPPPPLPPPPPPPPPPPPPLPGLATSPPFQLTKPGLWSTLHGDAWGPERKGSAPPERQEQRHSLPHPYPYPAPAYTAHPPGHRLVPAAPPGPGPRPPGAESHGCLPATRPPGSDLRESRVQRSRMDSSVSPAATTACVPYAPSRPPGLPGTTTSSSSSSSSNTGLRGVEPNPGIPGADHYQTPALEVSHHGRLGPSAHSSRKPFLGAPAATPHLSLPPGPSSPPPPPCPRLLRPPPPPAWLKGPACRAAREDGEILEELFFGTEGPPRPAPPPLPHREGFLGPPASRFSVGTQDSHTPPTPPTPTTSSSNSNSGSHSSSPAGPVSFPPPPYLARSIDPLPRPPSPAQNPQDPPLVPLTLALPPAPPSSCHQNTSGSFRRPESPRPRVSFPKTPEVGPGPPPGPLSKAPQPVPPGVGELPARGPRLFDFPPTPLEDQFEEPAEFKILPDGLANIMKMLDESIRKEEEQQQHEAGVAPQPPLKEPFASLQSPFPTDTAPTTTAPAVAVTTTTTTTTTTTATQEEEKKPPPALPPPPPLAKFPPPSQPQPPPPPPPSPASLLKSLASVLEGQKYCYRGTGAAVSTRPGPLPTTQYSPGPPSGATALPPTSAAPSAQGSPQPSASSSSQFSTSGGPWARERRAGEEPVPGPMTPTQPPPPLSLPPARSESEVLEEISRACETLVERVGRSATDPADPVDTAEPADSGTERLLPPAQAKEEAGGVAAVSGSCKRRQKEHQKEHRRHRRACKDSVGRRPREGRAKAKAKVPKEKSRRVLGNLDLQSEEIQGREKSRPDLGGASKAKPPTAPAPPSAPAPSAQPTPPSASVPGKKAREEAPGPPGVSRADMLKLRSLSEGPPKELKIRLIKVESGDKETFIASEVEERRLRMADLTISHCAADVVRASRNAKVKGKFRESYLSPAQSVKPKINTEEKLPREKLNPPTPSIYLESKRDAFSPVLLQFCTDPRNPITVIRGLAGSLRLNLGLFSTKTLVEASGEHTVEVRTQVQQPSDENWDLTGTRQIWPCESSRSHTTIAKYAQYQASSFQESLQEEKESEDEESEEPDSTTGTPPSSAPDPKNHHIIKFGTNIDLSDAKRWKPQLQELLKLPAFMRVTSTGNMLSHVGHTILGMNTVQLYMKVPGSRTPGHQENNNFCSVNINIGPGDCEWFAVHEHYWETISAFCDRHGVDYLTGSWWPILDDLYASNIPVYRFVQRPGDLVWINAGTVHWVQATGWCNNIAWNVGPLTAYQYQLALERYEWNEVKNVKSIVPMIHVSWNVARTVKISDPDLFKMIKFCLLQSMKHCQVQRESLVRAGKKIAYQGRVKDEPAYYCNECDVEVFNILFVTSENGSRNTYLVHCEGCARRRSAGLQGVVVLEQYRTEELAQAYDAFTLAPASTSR
T1 sequence (Q96KQ7 786-1210): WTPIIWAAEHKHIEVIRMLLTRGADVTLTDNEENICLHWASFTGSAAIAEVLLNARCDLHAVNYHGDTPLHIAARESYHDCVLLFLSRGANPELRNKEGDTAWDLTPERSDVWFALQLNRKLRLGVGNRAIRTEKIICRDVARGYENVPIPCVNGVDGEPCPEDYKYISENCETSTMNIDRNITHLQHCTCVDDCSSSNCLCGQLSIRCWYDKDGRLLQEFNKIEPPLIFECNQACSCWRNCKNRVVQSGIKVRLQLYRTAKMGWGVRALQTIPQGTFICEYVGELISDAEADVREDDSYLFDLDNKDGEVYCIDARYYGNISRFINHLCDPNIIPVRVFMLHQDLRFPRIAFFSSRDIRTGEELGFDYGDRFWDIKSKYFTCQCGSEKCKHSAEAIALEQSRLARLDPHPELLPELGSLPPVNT

Fold Selectivity Compared to KDM5A ([1]; IC50 of KDM6B over KDM5A): > 17,200 fold | IC50 ([1]; enzyme concentration 1 nM, read-out: IC50): 6.2 µM | fold selectivity for KDM5A and KDM5B over members of the KDM4 family ([2]; KDM4A –C): ≥ 13 fold | fold selectivity over members of the other KDM enzyme families tested ([2]; printed as from > 1,100- to > 278,000-fold, relative to KDM5A): > 1,100 fold | IC50 [3]: > 100 µM
Compound: CCN(CCN(C)C)C(=O)CNCc1cc(C(=O)O)ccn1 [GS-080]
